Laboratory results reported in PMC10452181, “Synthesis and Biological Evaluation of Cyclobutane-Based β3 Integrin Antagonists: A Novel Approach to Targeting Integrins for Cancer Therapy” (Cancers, 2023).

Columns and labels:
αvβ3 = target: T1, αvβ3 (Homo sapiens, UniProt P05106+P06756); assay: Sk-Mel-2 cell adhesion to immobilised fibronectin (cell-binding assay, MTT readout); assay type: cell-based; conditions: Sk-Mel-2 adhesion to Fn, mean ± SD
T1 construct: endogenous in cells; host or cells: SK-Mel-2 melanoma cells
T1 sequence (P06756 31-889 limits assumed): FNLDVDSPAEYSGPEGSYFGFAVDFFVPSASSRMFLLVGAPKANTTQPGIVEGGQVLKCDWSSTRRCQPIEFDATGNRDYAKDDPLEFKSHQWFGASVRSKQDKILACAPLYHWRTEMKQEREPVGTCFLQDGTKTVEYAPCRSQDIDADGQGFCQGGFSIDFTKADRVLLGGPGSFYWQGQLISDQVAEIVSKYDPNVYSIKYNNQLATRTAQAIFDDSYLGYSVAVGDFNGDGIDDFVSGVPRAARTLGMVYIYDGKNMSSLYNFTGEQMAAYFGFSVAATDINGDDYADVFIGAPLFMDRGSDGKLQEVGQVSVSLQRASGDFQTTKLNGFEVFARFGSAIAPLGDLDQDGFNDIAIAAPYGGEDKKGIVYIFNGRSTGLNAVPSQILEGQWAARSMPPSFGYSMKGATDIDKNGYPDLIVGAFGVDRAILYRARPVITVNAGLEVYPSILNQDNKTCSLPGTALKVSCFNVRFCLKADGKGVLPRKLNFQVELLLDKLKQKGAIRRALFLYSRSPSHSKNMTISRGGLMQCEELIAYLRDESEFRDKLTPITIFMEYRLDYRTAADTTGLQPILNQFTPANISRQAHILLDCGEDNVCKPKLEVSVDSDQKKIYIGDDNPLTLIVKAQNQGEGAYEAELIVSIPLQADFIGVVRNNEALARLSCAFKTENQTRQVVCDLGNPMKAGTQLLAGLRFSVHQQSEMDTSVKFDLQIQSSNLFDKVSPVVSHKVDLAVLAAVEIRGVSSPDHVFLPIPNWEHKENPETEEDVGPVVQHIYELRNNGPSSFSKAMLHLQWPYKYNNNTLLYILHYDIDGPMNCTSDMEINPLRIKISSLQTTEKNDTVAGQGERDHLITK
T1 sequence (P06756 891-1048 partner limits assumed): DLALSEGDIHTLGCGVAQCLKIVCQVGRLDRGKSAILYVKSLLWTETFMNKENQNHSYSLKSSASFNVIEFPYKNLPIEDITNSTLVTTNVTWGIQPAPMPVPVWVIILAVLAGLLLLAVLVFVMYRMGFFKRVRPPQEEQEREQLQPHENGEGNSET
T1 sequence (P05106 27-788): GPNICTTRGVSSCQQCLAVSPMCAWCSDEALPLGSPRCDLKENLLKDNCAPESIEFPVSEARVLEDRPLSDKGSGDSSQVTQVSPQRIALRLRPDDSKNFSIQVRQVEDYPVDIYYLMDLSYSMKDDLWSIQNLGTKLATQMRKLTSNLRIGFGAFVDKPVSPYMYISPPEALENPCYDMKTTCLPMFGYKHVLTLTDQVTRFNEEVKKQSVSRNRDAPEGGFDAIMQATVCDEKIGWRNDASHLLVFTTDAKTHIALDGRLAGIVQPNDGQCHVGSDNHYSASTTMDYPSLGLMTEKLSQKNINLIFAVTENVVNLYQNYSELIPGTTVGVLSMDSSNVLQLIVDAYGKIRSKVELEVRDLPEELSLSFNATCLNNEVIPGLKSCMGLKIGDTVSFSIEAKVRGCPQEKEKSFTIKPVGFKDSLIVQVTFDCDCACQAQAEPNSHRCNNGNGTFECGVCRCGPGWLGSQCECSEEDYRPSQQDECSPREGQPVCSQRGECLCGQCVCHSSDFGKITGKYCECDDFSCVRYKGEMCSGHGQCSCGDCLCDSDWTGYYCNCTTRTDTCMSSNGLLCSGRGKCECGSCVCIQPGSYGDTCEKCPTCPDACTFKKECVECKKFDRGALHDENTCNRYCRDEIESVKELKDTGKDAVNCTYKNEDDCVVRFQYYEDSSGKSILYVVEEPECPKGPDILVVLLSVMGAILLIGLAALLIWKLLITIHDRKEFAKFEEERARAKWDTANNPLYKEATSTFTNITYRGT
Method: First, 96-well plates (Corning, VWR) were coated overnight at 4 °C with 0.5 μg/well fibronectin (Sigma). SK-Mel-2 cells were trypsinised, washed and resuspended in RPMI medium only at 10^5 cells/mL. Cells (100 µL/well) were treated with compound (DMSO final concentration 0.1%) at the indicated concentration for 4 hrs on a rotary shaker. Plates were washed (3 × PBS) and blocked with PBS/5% BSA for 2 hrs at 37 °C prior to adding the cells. Cells were incubated on the plates at 37 °C in a humidified chamber with 5% CO2 for 1 hr. The plates were washed 3× with PBS and a 200 µL/well RPMI medium containing 10% FCS added. The plates were incubated overnight at 37 °C as above. Finally, 0.5 mg/mL of 3-(4,5-dimethythiazol-2-yl)-2,5-diphenyl tetrazolium bromide (MTT) was added to each well and the plates incubated for a further 4 h. The medium was removed, and the insoluble formazan dissolved in 150 µL of DMSO. Absorbance was measured at 540 nm using a Thermo Multiskan EX (Thermofisher, UK)and Ascent Software (v2.6). Total binding was determined based on controls lacking any compounds (100% binding) in fibronectin-coated wells and uncoated wells blocked with BSA (0% binding) and corrected for background (no cells, fibronectin-coated).
As an initial test of anti-β3 activity, the ability of compounds to inhibit the adhesion of melanoma cells expressing high levels of αvβ3 and low levels of other RGD-binding integrins such as αvβ5 and α5β1 to immobilised fibronectin was evaluated.
Cells were seeded onto precoated plates in the presence or absence of putative antagonists and the number of adherent cells quantified colorimetrically.

M14 cells = assay: cells; assay type: cell-based, human; conditions: M14 scratch wound, 24 h, mean ± SD; read-out: Migration IC50
Method: M14 cells (4 × 10^5/mL in RPMI 1640 medium) were seeded in six-well plates and incubated at 37 °C in a 5% CO2 humidified atmosphere for 48 h. The resulting confluent monolayer was scratched with a sterile P200 pipette tip to create a gap (approximately 2 cm in length and 650 μm in width) in the centre of the well. The medium was removed, and the cells washed with Hank’s balanced salt solution (HBSS) (1 mL) and replaced with a medium containing the test antagonist. After 24 h, the cells were washed twice with HBSS and fixed with ice-pre-cooled methanol for thirty minutes at −20 °C. Following hydration with two washes in PBS, the monolayers were counterstained with Harris’s haematoxylin solution for two minutes, then washed in tap water for one minute and left to dry at room temperature. The plates were observed using an inverted microscope, and digital images captured.
The anti-αvβ3 activity of selected compounds was confirmed in a wound-healing assay (Figure 3). A number of cell lines were initially investigated for their suitability in this assay. The Sk-Mel-2 cell line which adhered well to fibronectin in the adhesion assay migrated very slowly; therefore, M14 melanoma cells which combined high levels of αvβ3 with rapid migration and low levels of proliferation over the assay period (Supplementary Figure S4) were selected.

M14 = assay: Cytotoxicity by MTT assay, 96 h, M14; assay type: cell-based, human; conditions: MTT, 96 hours
Method: (§1) Before use in cell-based assays of integrin function, the effect of compounds on cell proliferation was tested using the MTT assay to avoid adhesion results being confounded by cell death (Supplementary Table S1). The effect of compounds on cell adhesion was then initially tested at a single, nontoxic concentration to identify active antagonists for further characterisation; those displaying a promising activity in the adhesion assay were tested at a wider range of concentrations to determine the IC50 (Table 2). […] Nevertheless, it is a cost-effective initial screening method. page 4: Table S1. Cytotoxicity of compounds on the cell lines used in the functional assays (measured by MTT assay). Cells (2000 cells/well for Sk-Mel-2; 1 x 10^4 cells/mL for M14) were incubated for 96 hours at 37 ° C in a total volume of 200 μL/well (180 μL medium + 20 μ L test compound solution). After 96 hours, the medium was replaced by fresh medium containing 0.5 mg/ml (end conc.) MTT per well, incubated for 4 h then the plate processed and read as described in the main text. […] ICT9053 41 naphthyridine 1 NHSO2Mes H Ester 52.6 ± 0.6 72.7 ± 9.8 ICT9065 42 naphthyridine 1 H H Ester >100 - ICT9079 43 naphthyridine 0 NHSO2Mes H Ester ~100 - ICT9061 44 naphthyridineT 1 NHSO2Mes H Ester 46.8 ± 10.7 - […] Ester 65.4 ± 11.1 >100 […] Ester 9.6 ± 5.7 >100 […] Ester >100 - […] Ester 54.6 ± 11.0 - […] Ester >5 3.3 ± 0.8 […] ICT9028 51 pyrimidine 2 NHSO2Ph H Acid >100 - ICT9031 52 pyrimidineT 1 NHSO2Mes H Acid >100 - ICT9090 53 pyrimidineT 2 NHSO2Mes H Acid >50 - ICT9029 54 pyrimidineT 2 NHSO2Ph H Acid >100 - ICT9063 55 naphthyridine 1 NHSO2Mes H Acid 61.7 ± 2.8 - […] Acid 45.5 ± 7.9 >100 […] 42.5 ± 1.8 >50 RGDS >50 - T trans configuration of cyclobutane sidechains.

Sk-Mel-2 = assay: in vitro; assay type: cell-based, human
Method: as §1

αIIbβ3 = target: T2, αIIbβ3 (Homo sapiens, UniProt P05106+P08514); assay: αIIbβ3/fibrinogen purified protein binding ELISA; conditions: mean ± SD; for IC50: read-out: IC50 (αIIbβ3/Fg)
T2 construct: purchased Sigma
T2 sequence (P08514 32-887 limits assumed): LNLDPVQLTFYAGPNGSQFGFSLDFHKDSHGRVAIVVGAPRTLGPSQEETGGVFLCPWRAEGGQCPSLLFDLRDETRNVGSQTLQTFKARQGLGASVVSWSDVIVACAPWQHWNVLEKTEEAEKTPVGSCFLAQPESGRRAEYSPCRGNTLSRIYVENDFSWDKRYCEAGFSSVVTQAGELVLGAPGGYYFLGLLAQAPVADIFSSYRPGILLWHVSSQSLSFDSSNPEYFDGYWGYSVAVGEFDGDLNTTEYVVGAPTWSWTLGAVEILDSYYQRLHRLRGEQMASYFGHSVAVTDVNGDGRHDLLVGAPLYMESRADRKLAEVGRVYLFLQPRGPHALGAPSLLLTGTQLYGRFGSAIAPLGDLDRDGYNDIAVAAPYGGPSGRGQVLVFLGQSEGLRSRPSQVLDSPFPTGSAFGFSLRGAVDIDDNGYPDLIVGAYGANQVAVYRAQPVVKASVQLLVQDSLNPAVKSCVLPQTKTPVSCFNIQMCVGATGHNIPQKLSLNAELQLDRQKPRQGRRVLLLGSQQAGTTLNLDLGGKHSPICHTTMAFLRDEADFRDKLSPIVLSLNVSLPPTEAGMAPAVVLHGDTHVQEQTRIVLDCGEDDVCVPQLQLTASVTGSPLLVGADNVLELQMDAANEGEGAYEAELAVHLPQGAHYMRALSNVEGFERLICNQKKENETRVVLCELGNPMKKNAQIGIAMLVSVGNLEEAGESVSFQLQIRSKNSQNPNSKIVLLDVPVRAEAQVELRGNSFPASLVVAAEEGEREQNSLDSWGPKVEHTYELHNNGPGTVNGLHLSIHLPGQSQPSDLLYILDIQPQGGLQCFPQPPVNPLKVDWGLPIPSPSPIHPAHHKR
T2 sequence (P08514 891-1039 partner limits assumed): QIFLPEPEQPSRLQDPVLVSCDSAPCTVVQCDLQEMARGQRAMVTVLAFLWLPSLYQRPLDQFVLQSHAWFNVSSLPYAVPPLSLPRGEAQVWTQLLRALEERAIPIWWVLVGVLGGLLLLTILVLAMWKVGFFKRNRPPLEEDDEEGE
T2 sequence (P05106 27-788): as the sequence (P05106 27-788) above
Method: ELISA assays were performed as previously described with minor modifications. Briefly, serial dilutions of compounds were prepared in dimethyl sulfoxide (DMSO). C8 Maxi Immuno modules (Fisher Scientific) were incubated overnight at 4 °C with 0.5 μg/well of fibrinogen (Sigma) in sterile phosphate buffered saline (PBS, 0.2 g/L KCl, 8.0 g/L NaCl, 0.2 KH2PO4, 1.15 g/L Na2HPO4, pH 7.4). All subsequent wash steps were performed using 25 mM Tris, pH 7.6, 150 mM NaCl, 1 mM MnCl2, 1 mg/mL BSA, and binding/inhibition was carried out in 25 mM Tris, pH 7.6, 150 mM NaCl, 1 mM MnCl2, 1 mM MgCl2, 1 mM CaCl2, 1 mg/mL BSA.
Wells were washed and blocked with a blocking solution (PBS, 0.1% Tween 20, 3% BSA) for 1 h at 37 °C. Compounds were added to the wells at indicated concentrations (final 0.5% DMSO) in the presence of 0.5 µg/well αIIbβ3 (Sigma) and incubated at room temp for 1 h. After 3 washes, primary anti-αIIb (1:200 dilution, Santa Cruz Biotech, Heidelberg, Germany) and antigoat–HRP (1:500 dilution, Dako, Agilent, Santa Clara, CA, USA) were added at room temp for 1 h. The wells were washed and incubated with 0.1 mg/mL tetra-methylbenzidine (Sigma) for 25 min and the reaction was stopped with 1N H2SO4 (100 μL/well). The absorbance was measured at 450 nm using a Multiscan Spectrum reader (Thermo Scientific, Thermofisher, UK) and SkanIT RE (v2.4.4.5) software. Results were plotted as percent binding vs. log concentration and IC50 values determined.

Row | Adhesion % Inhibition @ 5 μM (αvβ3) [%] | IC50 (M14 cells) [µM] | IC50 (Sk-Mel-2) [µM] | Adhesion % Inhibition @ 50 μM (αvβ3) [%] | IC50 (αvβ3) [µM] | % Inhibition (αIIbβ3/Fg) @ 50 μM (αIIbβ3) [%] | IC50 (αIIbβ3) [µM] | SMILES | IC50 (M14) [µM]
1 | 20.9 ± 27.5 | > 10 | 72 ± 6.5 | – | – | – | – | COC(=O)[C@H](CNC(=O)[C@H]1C[C@H](CCCCNc2ncccn2)C1)NS(=O)(=O)c1c(C)cc(C)cc1C [ICT9018 26, (S)-methyl 3-((1r,3r)-3-(4-(pyrimidin-2-ylamino)butyl)cyclobutanecarboxamido)-2-(2,4,6-trimethylphenylsulfonamido)propanoate] | > 100
2 | 35.2 ± 19.1 | 9.5 ± 0.9 | 53.8 ± 3.2 | 48.3 ± 4.1 | 50 ± 5 | 15.6 ± 14.5 | – | COC(=O)[C@H](CNC(=O)C1CC(CCNc2ncccn2)C1)NS(=O)(=O)c1c(C)cc(C)cc1C (stereo partly drawn) [ICT9019 21, (S)-Methyl 3-((1s,3r)-3-(2-(pyrimidin-2-ylamino)ethyl)cyclobutanecarboxamido)-2-(2,4,6-trimethylphenylsulfonamido)propanoate] | > 100
3 | 19.1 ± 14.2 | > 10 | 57.8 ± 1.9 | – | – | – | – | COC(=O)[C@H](CNC(=O)[C@H]1C[C@H](CCCNc2ncccn2)C1)NS(=O)(=O)c1c(C)cc(C)cc1C [ICT9020 24] | 36 ± 18.6
4 | 0 ± 19.6 | – | 55.3 ± 1.6 | 92.5 ± 8.1 | 38 ± 11 | 35.0 ± 11.3 | > 100 | COC(=O)[C@H](CNC(=O)[C@H]1C[C@@H](CCCNc2ncccn2)C1)NS(=O)(=O)c1c(C)cc(C)cc1C [ICT9025 28, (S)-methyl 3-((1s,3s)-3-(3-(pyrimidin-2-ylamino)propyl)cyclobutanecarboxamido)-2-(2,4,6-trimethylphenylsulfonamido)propanoate] | –
5 | – | – | > 100 | 31.8 ± 10.0 | > 50 | 93.6 ± 2.2 | 7.8 ± 2.8 | O=C(O)[C@H](CNC(=O)[C@H]1C[C@H](CCCNc2ncccn2)C1)NS(=O)(=O)c1ccccc1 [ICT9028 51, (S)-2-(phenylsulfonamido)-3-((1r,3r)-3-(3-(pyrimidin-2-ylamino)propyl)cyclobutanecarboxamido)propanoic acid] | –
6 | – | – | > 100 | 42.5 ± 14.1 | > 50 | 100 ± 6 | 3.3 ± 3.3 | O=C(O)[C@H](CNC(=O)[C@H]1C[C@@H](CCCNc2ncccn2)C1)NS(=O)(=O)c1ccccc1 [ICT9029 54, (S)-2-(phenylsulfonamido)-3-((1s,3s)-3-(3-(pyrimidin-2-ylamino)propyl)cyclobutanecarboxamido)propanoic acid] | –
7 | 4.5 ± 19.6 | – | 90.2 ± 4.3 | 51 ± 9.0 | 50 ± 7 | 91.2 ± 9.6 | 3.5 ± 1.9 | Cc1cc(C)c(S(=O)(=O)N[C@@H](CNC(=O)C2CC(CCNc3ncccn3)C2)C(=O)O)c(C)c1 (stereo partly drawn) [ICT9030 50, (S)-3-((1s,3r)-3-(2-(pyrimidin-2-ylamino)ethyl)cyclobutanecarboxamido)-2-(2,4,6-trimethylphenylsulfonamido)propanoic acid] | –
8 | 27.5 ± 32.9 | > 10 | 52.6 ± 0.6 | – | > 5 | 29.4 ± 17.6 | > 100 | COC(=O)[C@H](CNC(=O)[C@H]1C[C@H](CCc2ccc3cccnc3n2)C1)NS(=O)(=O)c1c(C)cc(C)cc1C [ICT9053 41, (S)-methyl 3-((1r,3r)-3-(2-(1,8-naphthyridin-2-yl)ethyl)cyclobutanecarboxamido)-2-(2,4,6-trimethylphenylsulfonamido)propanoate] | 72.7 ± 9.8
9 | 59.5 ± 24.0 | 1 ± 0.09 | 65.4 ± 11.1 | – | – | – | – | COC(=O)[C@H](CNC(=O)C1CC(CCc2ccc3c(n2)NCCC3)C1)NS(=O)(=O)c1ccccc1 (stereo partly drawn) [ICT9057 45, (S)-methyl 2-(phenylsulfonamido)-3-((1r,3r)-3-(2-(5,6,7,8-tetrahydro-1,8-naphthyridin-2-yl)ethyl)cyclobutanecarboxamido)propanoate] | > 100
10 | 72.3 ± 9.4 | 0.15 ± 0.03 | > 5 | – | – | – | – | COC(=O)[C@H](CNC(=O)[C@H]1C[C@@H](CCc2ccc3c(n2)NCCC3)C1)NS(=O)(=O)c1c(C)cc(C)cc1C [ICT9062 49, (S)-methyl 3-((1s,3s)-3-(2-(5,6,7,8-tetrahydro-1,8-naphthyridin-2-yl)ethyl)cyclobutanecarboxamido)-2-(2,4,6-trimethylphenylsulfonamido)propanoate] | 3.3 ± 0.8
